Earlier results in patent US20230128032A1, “Early Drug Interventions to Reduce COVID-19 Related Respiratory Distress, Need for Respirator Assist and Death” (Curtails LLC, priority 2020, published 2023).
Bridges are numbered along the chain shown (N, C = ends). Where no end group is shown, it is not given here.

Legend:
[1] = system: patients with pulmonary arterial hypertension; conditions: racecadotril treatment
mice = conditions: ANP pretreatment
[2] = system: patients with acute lung injury; conditions: intravenous infusion, mechanical ventilation with positive end-expiratory pressure
[3] = system: intensive care patients without heart disease
isolated perfused lung = conditions: increased capillary pressure, hypoxia or inflammatory stimuli such as detergents or prostaglandins

Compound | increase in plasma cGMP levels [1] | increase in the plasma ANP concentration [1] | reduction in pulmonary vascular resistance [1] | pulmonary oedema induced by congestive heart failure (dogs) | pulmonary oedema induced by lung ischaemia-reperfusion injury (rodents) | lung injury, inflammation and endothelial barrier dysfunction induced by gram-negative bacterial wall LPS or Staphylococcus Aureus infection (mice) | lung injury score [2] | pulmonary gas exchange [2] | pulmonary oedema [3] | anti-oedematic action in isolated perfused lung (isolated perfused lung)
CC(=O)SCC(Cc1ccccc1)C(=O)NCC(=O)OCc1ccccc1 (stereo not shown) [racecadotril] | 106% | 79% | 14% | – | – | – | – | – | – | –
ANP: synthetic form of the GC-A agonist peptide atrial natriuretic peptide (SLRRSSCFGGRMDRIGAQSGLGCNSFRY; disulfide 7-23; ends not checked; UniProt P01160 124-151, looked up) | – | – | – | attenuated | attenuated | protected | improved | improved | diminished | direct anti-oedematic action
